For test [1], the system named is PAF-induced asthma attack. The experiment in a line: Test 7: antiasthmatic effect, PAF-induced asthma attack. It is filed as in vivo. Conditions: Cavia porcellus; i.d., 15 minutes before PAF; guinea pig. How it is done: Test 7: Testing for antiasthmatic effect
Anesthetized guinea pigs, which were cannulated in the jugular vein to allow injection of the PAF, were used for testing for antiasthmatic effect. The test preparations were also administered intravenously (i.v.), 5 min before PAF administration, into the blood stream through the same venous cannula, or else administered intraduodenally (i.d.), 15 minutes before the PAF, through an opening in the duodenum which had been installed and cannulated surgically. The bronchial width was recorded in an overflow pneumonogram before and after administering the preparation. Evaluation: ED50 in mg/kg i.d. as compared with the PAF-induced asthma attack.

In test [2] the test system is tumor cell line 20-10-5S (hybridoma cell line). The experiment in a line: Test 8: Inhibition of tumor cell proliferation. Type of test: cell-based. Conditions: 48 h + 16 h tritiated thymidine incorporation; 20-10-5S cells. Background: Uptake of a labelled nucleoside into DNA is a usual measure of proliferation.
Test [3] has as its system leukotriene B4 synthesis in white blood cells. The experiment in a line: Test 3: LTB4 formation by white blood cells. Particulars: Homo sapiens; 10 μM; read-out: Test 3 residual activity (LTB4 formation), percent of control. Type of test: cell-based. How it is done: TEST 3. LTB4 formation by white blood cells
Isolation of white blood cells:
40 ml of human blood were mixed with 8 ml of 6% dextran solution (dextran, mw: 480,000 in PM16). After one hour at room temperature, the supernatant,which was composed of white blood cells, was removed, diluted with an equal volume of PM16, and centrifuged for 15 minutes at 300×g (1600 rpm). The sediment was next resuspended in approximately 5-6 ml of PM16 and, once the cell count had been determined in a Coulter Counter, adjusted to 10^7 cells/ml.
The test mixture comprised 0.24 ml of cell suspension, 0.03 ml of 20 mM CaCl2 /5 mM MgCl2 and 5 μl of test substance. Following 15 minutes of preincubation at 37° C., the reaction was started with 0.03 ml of A23187/glutathione (100 μg of A23187/ml; 15.4 μg of glutathione/ml). The incubation was terminated after 5 minutes at 37° C. by immediate cooling of the samples down to 0° C. After centrifuging for 2 minutes in an Eppendorff Centrifuge (0° C.), the supernatant was removed and examined chromatographically.
High pressure liquid chromatography (HPLC): the HPLC equipment comprises a Kratos pump (Spectro-flow 400), a cooled automatic BT 7041 sample injector (Biotronik) having a 75 μl sample loop, a Nucleosil C18 column (100*3 mm, 5 μm particles of Chrompack), a UV detector (Kratos) Spectroflow 757 (wavelength: 280 nm, measurement range: 0.1 AUFS, time constant: 0.5 s) and a Spectra Physics integrator (SP 4270). The eluent (725 ml of methanol, 275 ml of water and 0.1 ml of acetic acid) was supplied at a flow rate of 0.7 ml/minute and at a pressure of about 100 bar.
When doing this, the measurement range which has been set can be examined and altered if necessary. It is also vital to measure the test substances at the particular test concentration (e.g.: 10^-5 M) in PM16 before the cell incubation, since the test substances might conceal the LTB4 peak. If this is the case, a lower concentration must be selected.
(§1) The values in the table show the concentration of the test substance which was employed in μM and, besides this, the residual activity measured in percent based on the control, which was set to be 100%. The interleukin is additionally indicated in test 4.

Test [4] deals with cyclooxygenase-dependent thrombocyte aggregation. Briefly: Test 5: Cyclooxygenase-dependent thrombocyte aggregation. Type of test: cell-based, human. Conditions: arachidonic acid as inducer; for activity at 100 µM / activity at 25 µM: Homo sapiens, read-out: Test 5 residual activity (cyclooxygenase-dependent thrombocyte aggregation), percent of control; for Test 5 residual activity (cyclooxygenase-dependent thrombocyte aggregation), percent of control / activity at 25 µM: 25 μM; for Test 5 residual activity (cyclooxygenase-dependent thrombocyte aggregation), percent of control: hydrochloride. As for the experimental part: TEST 5. Cyclooxygenase-dependent thrombocyte aggregation
Platelet-rich plasma (PRP): to inhibit coagulation, human blood was treated with 1/10 of its volume of 3.8% sodium citrate solution. Centrifugation then takes place at 105×g for 20 minutes and the supernatant (PRP) is removed. 200 μl of PRP were preincubated, at 37° C. for 10 minutes, together with 30 μl of test substance in a PAP4 aggregometer (BioData). The test substance was dissolved in organic solvent and diluted 1:30 with buffer (50 mM TisHCl, pH 8.0; 90 mM NaCl). Aggregation is triggered with 20 μl of inducer. During the aggregation, stirring takes place at 800 rpm. Arachidonic acid, 5 mg/ml, was used as the inducer.
as §1

Test [5] deals with polymorphonuclear leucocytes (PMNL). The experiment in a line: Test 1: Release of proteolytic activity from human PMNL. Type of test: cell-based. Particulars: for Test 1 residual activity (release of proteolytic activity), percent of control: hydrochloride. How it is done:
Isolation of polymorphonuclear leucocytes (PMNL) from human peripheral blood for carrying out tests 1 and 2 10 ml of human blood were diluted with 10 ml of HBSS (Serva) and underlaid with 15 ml of Lymphoprep (Dr. Molter GmbH, Heidelberg). […] A white ring, composed of mononuclear cells, is located between these two phases. The lowermost phase is composed of erythrocytes which are covered with a white layer of PMNL. The uppermost phase, and also the Lymphoprep and the white ring, were carefully removed using a syringe. The remaining sediment was carefully resuspended in 15 ml of 3% dextran in PM16 (mw: 485,000, Sigma, Deisenhofen). The suspension was then left to stand at room temperature for one hour. During this time, the erythrocytes sedimented while the PMNL remained in the supernatant. The supernatant was removed, diluted with an approximately equal volume of PM16, and centrifuged for 15 minutes at 400×g. Should the PMNL sediment be heavily contaminated with erythrocytes, it is necessary to carry out a hypotonic lysis. To do this, the sediment was resuspended in 750 μl of water. After exactly 15 seconds, the suspension was diluted with approximately 7 ml of PM16 and centrifuged for 10 minutes at 400×g. If necessary, this lysis was repeated once more. Otherwise, the PMNL sediment was resuspended in a suitable medium. 250 μl of PMNL (5·10^6 cells/ml of PBS containing 7.5 mM glucose) were incubated at 37° C. for 20 minutes with 1 μl of test substance. 1 μl of cytochalasin B (5 μg/ml of test mixture) was then added and the mixture was incubated at 37° C. for a further 5 minutes. Following the addition of 1 μl of […] necrosis factor alpha (TNF; 30 ng/ml of test mixture), the incubation was continued for 5 minutes. The release was started using 1 μl of fMLP (10 nmol/l of test mixture). After 60 minutes at 37° C., the reaction was terminated by cooling the samples down to 0° C. The samples were then centrifuged, and the supernatant was removed and frozen down. Cytochalasin B and fMLP were dissolved in DMSO and TNF was diluted with buffer. 50 μl of the supernatant were mixed with 175 μl of buffer (100 mM HEPES, pH 7.5; 500 mM NaCl) in a 96-well microtiter plate. Following the addition of 25 μl of substrate (methoxysuccinyl-[…]-nitroanilide), the extinction of each well was measured at 405 nm after 0, 5, 10, 15, 30 and 60 minutes. […] The interleukin is additionally indicated in test 4.

In another test the test system is adjuvant/arthritis model. The experiment in a line: Test 6: antiarthritic effect in the adjuvant/arthritis model. Type of test: in vivo, rat (Wistar-Lewis). Particulars: daily for 17 days, rat; for Test 6 Paw volume (% inhibition) / inhibition in vivo at 25 mg/kg: 25 mg/kg orally; for Test 6 Paw volume (% inhibition): hydrochloride.
[6] abbreviates: Homo sapiens, PMNL, 1 μM, read-out: Test 1 residual activity (release of proteolytic activity), percent of control.
Setting [7] is: Homo sapiens, PMNL, 10 μM, read-out: Test 1 residual activity (release of proteolytic activity), percent of control.
[8] abbreviates: Rattus norvegicus, po, 408 h, read-out: Test 6 Paw volume (% inhibition).

The record followed here is patent US5814627A, “3, 5-disubstituted and 3, 4, 5-trisubstituted 2-isoxazolines and isoxazoles, process for their preparation and their use as pharmaceuticals” (Hoechst Aktienegesellschaft, priority 1994, dated 1998).

Counter-ions that a name gives are not always drawn.

The term ED50 denotes the dose that gives a 50% effect, or the effect in half of the subjects. Lower therefore signals an effect at a small dose. Broadly, the IC50 is the concentration at which inhibition is half-maximal. Consider `CC(C)(C)c1cc(-c2cc(COC(=O)NCC(=O)O)on2)cc(C(C)(C)C)c1O` [Example 40, N-(3-(4-Hydroxy-3,5-di-tert-butylphenyl)isoxazol-5-ylmethoxycarbonyl)glycine], for which, in test [1], the ED50 fell in the range of 1 to 3 mg/kg. Also, the concentration for half-maximal inhibition (IC50) in test [2] was under 5 µM.

For the compound `CC(C)(OCc1cc(-c2cc(C(C)(C)C)c(O)c(C(C)(C)C)c2)no1)C(=O)O` [Example 36, 2-(3-(4-Hydroxy-3,5-di-tert-butylphenyl)isoxazol-5-ylmethoxy)-2-methylpropionic acid], in test [3], the activity at 10 µM is 93%. Moreover, in test [4], the activity at 100 µM was 87%.

In the case of `CC(OC(=O)[C@@H](N)Cc1ccccc1)C1CC(c2cc(C(C)(C)C)c(O)c(C(C)(C)C)c2)=NO1` (single isomer, unassigned) [Example 75, L-Phenylalanine-1-(3-(4-hydroxy-3,5-di-tert-butylphenyl)isoxazolin-5-yl)ethyl ester hydrochloride], the “Test 5 residual activity (cyclooxygenase-dependent thrombocyte aggregation), percent of control” value in test [4] is listed as 98%. Further, the “Test 1 residual activity (release of proteolytic activity), percent of control” value in test [5] (10 μM) was determined as 49%. Further, the activity at 1 µM in test [5] (setting [6]) was 89%. Moreover, the IC50 in test [2] is 5 to 10 µM. Besides, the “Test 6 Paw volume (% inhibition)” value with adjuvant/arthritis model came to 76%.

In test [1], `CC(C)(C)c1cc(-c2cc(CNC(=O)NCC(=O)O)on2)cc(C(C)(C)C)c1O` [Example 56, (3-(3-(4-Hydroxy-3,5-di-tert-butylphenyl)isoxazol-5-ylmethyl)ureido)acetic acid] gave a 50% effective dose (ED50) of about 50 mg/kg.

`CC(C)(C)c1cc(-c2cc(CCOC(=O)NCC(=O)O)on2)cc(C(C)(C)C)c1O` [Example 43, N-(2-(4-Hydroxy-3,5-di-tert-butylphenyl)isoxazol-5-ylethoxycarbonyl)glycine]: the activity at 10 µM in test [3] was 93%. Further, the activity at 100 µM in test [4] was determined as 99%.

For the compound `CC(OC(=O)[C@@H](N)Cc1ccccc1)c1cc(-c2cc(C(C)(C)C)c(O)c(C(C)(C)C)c2)no1.Cl` (single isomer, unassigned) [Example 72, L-Phenylalanine-1-(3-(4-hydroxy-3,5-di-tert-butylphenyl)isoxazol-5-yl)ethylester hydrochloride], the “Test 5 residual activity (cyclooxygenase-dependent thrombocyte aggregation), percent of control” value in test [4] was determined as 100%. The “Test 1 residual activity (release of proteolytic activity), percent of control” value in test [5] (1 μM) came to 82%; in test [5] (10 μM), 51%. In test [2], the IC50 lay within 5 to 10 µM. In the test with adjuvant/arthritis model, the “Test 6 Paw volume (% inhibition)” value is listed as 60%.

Take `CC(C)(C)c1cc(C2CC(c3ccncc3)=NO2)cc(C(C)(C)C)c1O` (stereo not shown) [Example 60, 3-(4-Pyridyl)-5-(4-hydroxy-3,5-di-tert-butylphenyl)-2-isoxazoline]: in test [3], the activity at 10 µM was 88%.

For `C[C@@H](OC(=O)CN)[C@@H]1CC(c2cc(C(C)(C)C)c(O)c(C(C)(C)C)c2)=NO1` (relative stereo) [Example 77, Glycine-1-(3-(4-hydroxy-3,5-di-tert-butylphenyl)-2-isoxazoline-5-yl)ethyl ester hydrochloride], the activity at 25 µM in test [4] is 100%. The activity at 10 µM in test [5] (setting [7]) is 74%. In test [5] (Homo sapiens, PMNL, 100 μM, read-out: Test 1 residual activity (release of proteolytic activity), percent of control), the activity at 100 µM came to 30%. The half-maximal inhibitory concentration (IC50) in test [2] worked out at 20 µM. Further, in the test with adjuvant/arthritis model (Rattus norvegicus, po, 408 h, 50 mg/kg orally, read-out: Test 6 Paw volume (% inhibition)), the inhibition in vivo at 50 mg/kg was found to be 82%.

In the case of `CC(OC(=O)[C@@H](N)Cc1ccccc1)c1cc(-c2cc(C(C)(C)C)c(O)c(C(C)(C)C)c2)no1` (single isomer, unassigned) [Example 71, L-Phenylalanine-1-(3-(4-hydroxy-3,5-di-tert-butylphenyl)isoxazol-5-yl)ethylester hydrochloride], the activity at 25 µM in test [4] amounted to 97%. Further, in test [5] (setting [6]), the activity at 1 µM came to 79%. Also, the activity at 10 µM in test [5] (setting [7]) stood at 42%. Further, the IC50 in test [2] lay within 5 to 10 µM. In addition, in the test with adjuvant/arthritis model (setting [8]), the inhibition in vivo at 25 mg/kg came to 66%.

Consider `CC(C)(C)c1cc(C2=NOC(P(=O)(O)O)C2)cc(C(C)(C)C)c1O` (stereo not shown) [Example 6, 3-(4-Hydroxy-3,5-di-tert-butylphenyl)-2-isoxazolin-5-ylphosphonic acid], for which the ED50 in test [1] was about 50 mg/kg.

`Cc1oncc1C(=O)NCc1cc(-c2cc(C(C)(C)C)c(O)c(C(C)(C)C)c2)no1` [Example 52] had a median effective dose (ED50) in test [1] of 3 to 10 mg/kg. Further, in test [2], the IC50 is under 5 µM.

As to `CCOC(=O)CNC(=O)NCc1cc(-c2cc(C(C)(C)C)c(O)c(C(C)(C)C)c2)no1` [Example 54, Ethyl (3-(3-(4-hydroxy-3,5-di-tert-butylphenyl)isoxazol-5-ylmethyl)ureido) acetate], the ED50 in test [1] is 1 to 3 mg/kg. Also, the IC50 in test [2] fell in the range of 5 to 10 µM.

As for `CC(OC(=O)[C@@H](N)Cc1ccccc1)C1CC(c2cc(C(C)(C)C)c(O)c(C(C)(C)C)c2)=NO1` (single isomer, unassigned) [Example 74, L-Phenylalanine-1-(3-(4-hydroxy-3,5-di-tert-butylphenyl)isoxazolin-5-yl)ethyl ester hydrochloride], in test [4], the activity at 25 µM came out at 95%. In test [5] (setting [7]), the activity at 10 µM turned out to be 64%. Moreover, the IC50 in test [2] was 5 to 10 µM. Moreover, the inhibition in vivo at 25 mg/kg in the test on adjuvant/arthritis model (setting [8]) was 60%.
